The test system of assay [1] is T47D. Briefly: Induction of apoptosis in human T47D cells assessed as caspase activation after 24 hrs. The assay is classed as functional, cell-based.
Assay [2] relates to HCT-116. Briefly: Induction of apoptosis in human HCT116 cells assessed as caspase activation after 24 hrs. Format: functional, cell-based. Conditions: HCT-116, 24 h.
The test system of assay [3] is SNU-398. Briefly: Induction of apoptosis in human SNU398 cells assessed as caspase activation after 24 hrs. As to conditions: SNU-398, 24 h. Format: functional, cell-based.
Assay [4] deals with T47D. Kind of assay: Growth inhibition of human T47D cells. The assay is classed as functional.
Assay [5] relates to HCT-116. Briefly: Growth inhibition of human HCT116 cells. The assay is classed as functional.
In assay [6] the test system is SNU-398. Kind of assay: Growth inhibition of human SNU398 cells. Format: functional.
The nature of assay [7]: Inhibition of tubulin polymerization.
Assay [8] has as its system HCT-116. Briefly: Cell cycle arrest in human HCT116 cells by accumulation at G2/M phase by flow cytometry. The assay is classed as functional, cell-based.
In assay [9] the test system is SK-BR-3. Briefly: Growth inhibition of human SKBR3 cells. The assay is classed as functional.
For assay [10], the system named is ZR-75-1. Briefly: Growth inhibition of human ZR-75-1 cells. The assay is classed as functional.
Assay [11] has as its system BT-474. Briefly: Growth inhibition of human BT474 cells. The assay is classed as functional.
Assay [12] relates to DLD-1. Briefly: Growth inhibition of human DLD1 cells. The assay is classed as functional.
Assay [13] concerns HT-29. Kind of assay: Growth inhibition of human HT-29 cells. The assay is classed as functional.
Assay [14] in a line: Growth inhibition of human H1299 cells. The assay is classed as functional. As to conditions: NCI-H1299.
In assay [15] the test system is K562. Briefly: Growth inhibition of human K562 cells. The assay is classed as functional.
Assay [16] can be described thus: Growth inhibition of human NAMALWA cells. Format: functional. Conditions: NAMALVA.
Assay [17] concerns Raji. Kind of assay: Growth inhibition of human Raji cells. Format: functional.
Assay [18] is described as follows: Inhibition of tubulin polymerization up to 50 uM.

Activity calls are given as the source filed them. No cut-off for these calls is given here.

`COc1cccc(C(=O)c2cc(C#N)c3ccc4ccccc4n23)c1`: the EC50 in assay [1] was found to be 0.17 µM; in [2] it was 1.7 µM; in assay [3], 1.6 µM.
Turning to `N#Cc1cc(C(=O)c2ccc(N3CCCC3)cc2)n2c1ccc1ccccc12`, the EC50 is 0.3 µM in [1], 0.58 µM in assay [2] and 0.51 µM in assay [3]. Also, the GI50 in assay [4] amounted to 0.075 µM; in [5], 0.25 µM; in [6], 0.14 µM.
For `N#Cc1cc(C(=O)c2ccc(-n3cccn3)cc2)n2c1ccc1ccccc12`, the EC50 in assay [1] came to 0.041 µM; in assay [2], 0.096 µM; in assay [3], 0.057 µM. Moreover, the GI50 in assay [4] was 0.072 µM; in [5], 0.24 µM; in [6] it was 0.036 µM. In [7], this compound registered an IC50 of 1 µM.
On to `COc1ccc(C(=O)c2cc(C#N)c3ccc4ccccc4n23)cc1`, for which the EC50 in [1] came out at 0.28 µM; in assay [2], 0.28 µM; in assay [3] it was 0.18 µM. For the same compound, the concentration for 50% growth inhibition (GI50) was found to be 0.071 µM in [4], 0.49 µM in assay [5] and 0.12 µM in [6].
With `N#Cc1cc(C(=O)c2ccc(-n3ccnc3)cc2)n2c1ccc1ccccc12`, the EC50 was determined as 0.034 µM in assay [1], 0.074 µM in assay [2] and 0.039 µM in [3]. The figures for the GI50 in [4], in assay [5] and in [6] were 0.041 µM, 0.065 µM and 0.059 µM, respectively. Besides, the outcome in assay [8] was Active. Besides, it took 5 µM to reach half-maximal inhibition in [7] (IC50).
As for `N#Cc1cc(C(=O)c2ccc(N)cc2)n2c1ccc1ccccc12`, the half-maximal effective concentration (EC50) in assay [1] was found to be 0.17 µM; in assay [2], 0.24 µM; in assay [3], 0.2 µM. Moreover, the GI50 in [4] amounted to 0.47 µM; in [5] it was 1.2 µM; in assay [6], 0.42 µM.
For `CCOC(=O)c1cc(C(=O)c2cccc(OC)c2)n2c1ccc1ccccc12`, the EC50 in assay [1], in assay [2] and in assay [3] was greater than 10 µM in each case.
Consider `N#Cc1cc(C(=O)c2ccc(N3CCNCC3)cc2)n2c1ccc1ccccc12`, for which the concentration for a half-maximal effect (EC50) in assay [1], in assay [2] and in [3] was greater than 10 µM throughout.
`N#Cc1cc(C(=O)c2ccc(Cl)cc2)n2c1ccc1ccccc12`: the EC50 was 0.049 µM in [1], greater than 10 µM in assay [2] and greater than 10 µM in [3].
For the compound `COc1ccc(C(O)c2cc(C#N)c3ccc4ccccc4n23)cc1` (stereo not drawn), the concentration for a half-maximal effect (EC50) worked out at 0.22 µM in assay [1], 0.24 µM in assay [2] and 0.14 µM in assay [3].
The like results for `Cc1ccc(C(=O)c2cc(C#N)c3ccc4ccccc4n23)cc1` were, in that order, 0.93 µM, 4.2 µM and 2.7 µM.
For `N#Cc1cc(C(=O)c2ccccn2)n2c1ccc1ccccc12`, in that order: 0.04 µM, 1.9 µM and 1.6 µM.
For the compound `N#Cc1cc(C(=O)c2ccccc2)n2c1ccc1ccccc12`, the EC50 in assay [1] was found to be 0.078 µM; in assay [2], 5.5 µM; in assay [3], 5.2 µM. The GI50 in assay [9] was found to be 0.07 µM; in assay [10], 0.07 µM; in assay [11], 0.07 µM; in assay [12] it was 1.2 µM; in assay [13], 1.2 µM; in [14], 1.2 µM. Also, the GI50 in assay [15] was 1.2 µM; in [16], 1.2 µM; in assay [17], 1.2 µM; in [4], 0.07 µM; in [5], 5.8 µM; in assay [6], 2 µM. For the same compound, in assay [8], the result was Active. Further, in assay [18], the result was inactive.
`Cc1ccccc1C(=O)c1cc(C#N)c2ccc3ccccc3n12`: the figures for the concentration giving a half-maximal response (EC50) in [1], in assay [2] and in [3] were 0.14 µM, 2.5 µM and 2.7 µM, respectively. Further, the concentration for 50% growth inhibition (GI50) worked out at 0.087 µM in assay [4], 1.6 µM in assay [5] and 0.73 µM in assay [6].
Turning to `CCN(CC)c1ccc(C(=O)c2cc(C#N)c3ccc4ccccc4n23)cc1`, the 50% effective concentration (EC50) in assay [1] worked out at 0.1 µM; in assay [2] it was 0.37 µM; in assay [3] it was 0.26 µM.
For `N#Cc1cc(C(O)c2ccc(-n3cccn3)cc2)n2c1ccc1ccccc12` (stereo not drawn), in that order: 0.16 µM, 0.55 µM and 0.35 µM.
The like results for `N#Cc1cc(C(O)c2ccc(N3CCCC3)cc2)n2c1ccc1ccccc12` (stereo not drawn) were, in that order, 0.21 µM, 0.32 µM and 0.3 µM.
For `N#Cc1cc(C(=O)c2ccc([N+](=O)[O-])cc2)n2c1ccc1ccccc12`, in that order: 2.8 µM, greater than 10 µM and greater than 10 µM.
In the case of `CC(=O)c1cc(C(=O)c2ccc(C)cc2)n2c1ccc1ccccc12`, the EC50 in assay [1], in assay [2] and in [3] was greater than 10 µM throughout.
As to `N#Cc1cc(C(=O)c2cccnc2)n2c1ccc1ccccc12`, the EC50 in assay [1] amounted to 0.69 µM; in [2], 3.7 µM; in assay [3], 2.6 µM.
The like results for `N#Cc1cc(C(=O)c2ccc(F)cc2)n2c1ccc1ccccc12` were, in that order, 0.036 µM, 1.2 µM and 0.88 µM.

The term EC50 denotes the concentration at which the effect is half-maximal. The term GI50 denotes the concentration that inhibits growth by half. A word on the IC50: it is the concentration that inhibits the measured activity by half.

The values above are taken from ChEMBL document CHEMBL1152165, “Discovery of 1-benzoyl-3-cyanopyrrolo[1,2-a]quinolines as a new series of apoptosis inducers using a cell- and caspase-based high-throughput screening assay. Part 1: Structure-activity relationships of the 1- and 3-positions” (Bioorg Med Chem Lett, 2008).
